Here are results for 10 molecules from patent publication US11667649B2, “Heteroaromatic macrocyclic ether chemotherapeutic agents” (Nuvalent, Inc., priority 2020, dated 2023).

In the assay the test system is TPM3-NTRK1-wt IC50 / primary target (e.g. CD74-ROS1-wt) IC50, Ba/F3 cells. In words: Cell assay TRKA selectivity (TRKA potency divided by primary target potency). In kind it is cell-based. As to conditions: for TPM3-NTRK1-wt/CD74-ROS1-G2032R: TRKA selectivity ratio: TPM3-NTRK1-wt IC50 / CD74-ROS1-G2032R IC50, Ba/F3 cells; for TPM3-NTRK1-wt/CD74-ROS1-wt: TRKA selectivity ratio: TPM3-NTRK1-wt IC50 / CD74-ROS1-wt IC50, Ba/F3 cells; for TPM3-NTRK1-wt/EML4-ALK-L1196M-G1202R: TRKA selectivity ratio: TPM3-NTRK1-wt IC50 / EML4-ALK-L1196M-G1202R IC50, Ba/F3 cells; for TPM3-NTRK1-wt/EML4-ALK-wt: TRKA selectivity ratio: TPM3-NTRK1-wt IC50 / EML4-ALK-wt IC50, Ba/F3 cells. Summed up: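 Ratio of TRKA to primary-target cellular IC50 (e.g. TPM3-NTRK1-wt/CD74-ROS1-wt), grouped into bins A >30, B >10, C ≥1, D <1. Each IC50 came from engineered Ba/F3 fusion lines grown without IL-3, dosed for 72 h and read as CellTiter-Glo luminescence, with a four-parameter logistic fit.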

Molecules are shown by their SMILES.

With `CCn1ncc2c1-c1cnc(N)c(c1)O[C@H](C)c1cc(F)ccc1-c1nc(C)cn1C2` [Example 45, (19R)-3-ethyl-16-fluoro-10,19-dimethyl-20-oxa-3,4,8,11,23-pentaazapentacyclo[19.3.1.0^2,^6.0^8,^12.0^13,^18]pentacosa-1(24),2(6),4,9,11,13,15,17,21(25),22-decaen-22-amine], the TPM3-NTRK1-wt/CD74-ROS1-G2032R entry is “A (bin A for very high selectivity, ratio>30-fold)”; the TPM3-NTRK1-wt/CD74-ROS1-wt entry is “A (bin A for very high selectivity, ratio>30-fold)”; the TPM3-NTRK1-wt/EML4-ALK-L1196M-G1202R result is “B (bin B for high selectivity, ratio>10-fold)”; the TPM3-NTRK1-wt/EML4-ALK-wt entry is “A (bin A for very high selectivity, ratio>30-fold)”.

For the molecule `CCn1ncc2c1-c1cnc(N)c(c1)O[C@H](C)c1cc(F)ccc1-n1ncc(F)c1C2` [Example 46, (19R)-3-ethyl-9,16-difluoro-19-methyl-20-oxa-3,4,11,12,23-pentaazapentacyclo[19.3.1.0^2,^6.0^8,^12.0^13,^18]pentacosa-1(24),2(6),4,8,10,13,15,17,21(25),22-decaen-22-amine], the TPM3-NTRK1-wt/CD74-ROS1-G2032R result was “A (bin A for very high selectivity, ratio>30-fold)”; the TPM3-NTRK1-wt/CD74-ROS1-wt entry is given as “A (bin A for very high selectivity, ratio>30-fold)”; the TPM3-NTRK1-wt/EML4-ALK-L1196M-G1202R result is listed as “C (bin C for moderate selectivity, ratio≥1)”; the TPM3-NTRK1-wt/EML4-ALK-wt result is listed as “A (bin A for very high selectivity, ratio>30-fold)”.

For the molecule `CCn1ncc2c1-c1cnc(N)c(c1)O[C@H](C)c1cc(F)ccc1-n1ncc(C#N)c1C2` [Example 47, (19R)-22-amino-3-ethyl-16-fluoro-19-methyl-20-oxa-3,4,11,12,23-pentaazapentacyclo[19.3.1.0^2,^6.0^8,^12.0^13,^18]pentacosa-1(24),2(6),4,8,10,13,15,17,21(25),22-decaene-9-carbonitrile], the TPM3-NTRK1-wt/CD74-ROS1-G2032R result is on record as “A (bin A for very high selectivity, ratio>30-fold)”; the TPM3-NTRK1-wt/CD74-ROS1-wt entry is recorded as “A (bin A for very high selectivity, ratio>30-fold)”; the TPM3-NTRK1-wt/EML4-ALK-L1196M-G1202R result is “C (bin C for moderate selectivity, ratio≥1)”; the TPM3-NTRK1-wt/EML4-ALK-wt result is given as “B (bin B for high selectivity, ratio>10-fold)”.

Take `CCn1ncc2c1-c1cnc(N)c(c1)OCc1cc(F)ccc1-n1ncc(F)c1C2` [Example 48, 3-ethyl-9,16-difluoro-20-oxa-3,4,11,12,23-pentaazapentacyclo[19.3.1.0^2,^6.0^8,^12.0^13,^18]pentacosa-1(24),2(6),4,8,10,13,15,17,21(25),22-decaen-22-amine]: the TPM3-NTRK1-wt/CD74-ROS1-G2032R result is “A (bin A for very high selectivity, ratio>30-fold)”; the TPM3-NTRK1-wt/CD74-ROS1-wt result is given as “A (bin A for very high selectivity, ratio>30-fold)”; the TPM3-NTRK1-wt/EML4-ALK-L1196M-G1202R entry was “B (bin B for high selectivity, ratio>10-fold)”; the TPM3-NTRK1-wt/EML4-ALK-wt result was “A (bin A for very high selectivity, ratio>30-fold)”.

Take `CCn1ncc2c1-c1cnc(N)c(c1)OCc1cc(F)ccc1-c1nn(C)cc1C2` [Example 49, 3-ethyl-16-fluoro-10-methyl-20-oxa-3,4,10,11,23-pentaazapentacyclo[19.3.1.0^2,^6.0^8,^12.0^13,^18]pentacosa-1(24),2(6),4,8,11,13,15,17,21(25),22-decaen-22-amine]: the TPM3-NTRK1-wt/CD74-ROS1-G2032R entry is on record as “A (bin A for very high selectivity, ratio>30-fold)”; the TPM3-NTRK1-wt/CD74-ROS1-wt entry was “A (bin A for very high selectivity, ratio>30-fold)”; the TPM3-NTRK1-wt/EML4-ALK-L1196M-G1202R result is “B (bin B for high selectivity, ratio>10-fold)”; the TPM3-NTRK1-wt/EML4-ALK-wt entry is recorded as “A (bin A for very high selectivity, ratio>30-fold)”.

In the case of `CCc1ncn2c1-c1cnc(N)c(c1)O[C@H](C)c1cc(F)ccc1-c1nn(C)cc1C2` [Example 50, (19R)-3-ethyl-16-fluoro-10,19-dimethyl-20-oxa-4,6,10,11,23-pentaazapentacyclo[19.3.1.0^2,^6.0^8,^12.0^13,^18]pentacosa-1(24),2,4,8,11,13,15,17,21(25),22-decaen-22-amine], the TPM3-NTRK1-wt/CD74-ROS1-G2032R entry is on record as “A (bin A for very high selectivity, ratio>30-fold)”; the TPM3-NTRK1-wt/CD74-ROS1-wt result is “A (bin A for very high selectivity, ratio>30-fold)”; the TPM3-NTRK1-wt/EML4-ALK-L1196M-G1202R result is listed as “B (bin B for high selectivity, ratio>10-fold)”; the TPM3-NTRK1-wt/EML4-ALK-wt result is on record as “A (bin A for very high selectivity, ratio>30-fold)”.

For the molecule `CCn1ncc2c1-c1cnc(N)c(c1)O[C@H](C)c1cc(F)ccc1-n1nc(C#N)cc1C2` [Example 51, (19R)-22-amino-3-ethyl-16-fluoro-19-methyl-20-oxa-3,4,11,12,23-pentaazapentacyclo[19.3.1.0^2,^6.0^8,^12.0^13,^18]pentacosa-1(24),2(6),4,8,10,13,15,17,21(25),22-decaene-10-carbonitrile], the TPM3-NTRK1-wt/CD74-ROS1-G2032R entry is reported as “C (bin C for moderate selectivity, ratio≥1)”; the TPM3-NTRK1-wt/CD74-ROS1-wt entry is on record as “C (bin C for moderate selectivity, ratio≥1)”; the TPM3-NTRK1-wt/EML4-ALK-L1196M-G1202R entry is “C (bin C for moderate selectivity, ratio≥1)”; the TPM3-NTRK1-wt/EML4-ALK-wt result is reported as “D (bin D for low selectivity, ratio<1)”.

For `CCn1ncc2c1-c1cnc(N)c(c1)O[C@H](C)c1cc(F)ccc1-n1nc(C(F)(F)F)cc1C2` [Example 52, (19R)-3-ethyl-16-fluoro-19-methyl-10-(trifluoromethyl)-20-oxa-3,4,11,12,23-pentaazapentacyclo[19.3.1.0^2,^6.0^8,^12.0^13,^18]pentacosa-1(24),2(6),4,8,10,13,15,17,21(25),22-decaen-22-amine], the TPM3-NTRK1-wt/CD74-ROS1-G2032R result is on record as “A (bin A for very high selectivity, ratio>30-fold)”; the TPM3-NTRK1-wt/CD74-ROS1-wt result is recorded as “A (bin A for very high selectivity, ratio>30-fold)”; the TPM3-NTRK1-wt/EML4-ALK-L1196M-G1202R result is “C (bin C for moderate selectivity, ratio≥1)”; the TPM3-NTRK1-wt/EML4-ALK-wt result was “B (bin B for high selectivity, ratio>10-fold)”.

Consider `Cc1nn(CC2CC2)c2c1Cc1cn(C)nc1-c1ccc(F)cc1[C@@H](C)Oc1cc-2cnc1N` [Example 53, (19R)-3-(cyclopropylmethyl)-16-fluoro-5,10,19-trimethyl-20-oxa-3,4,10,11,23-pentaazapentacyclo[19.3.1.0^2,^6.0^8,^12.0^13,^18]pentacosa-1(24),2(6),4,8,11,13,15,17,21(25),22-decaen-22-amine], for which the TPM3-NTRK1-wt/CD74-ROS1-G2032R result was “A (bin A for very high selectivity, ratio>30-fold)”; the TPM3-NTRK1-wt/CD74-ROS1-wt result is “A (bin A for very high selectivity, ratio>30-fold)”; the TPM3-NTRK1-wt/EML4-ALK-L1196M-G1202R result is listed as “A (bin A for very high selectivity, ratio>30-fold)”; the TPM3-NTRK1-wt/EML4-ALK-wt result was “A (bin A for very high selectivity, ratio>30-fold)”.

Take `Cc1nn(CC2CC2)c2c1Cc1c(nn(C)c1Cl)-c1ccc(F)cc1[C@@H](C)Oc1cc-2cnc1N` [Example 54, (19R)-9-chloro-3-(cyclopropylmethyl)-16-fluoro-5,10,19-trimethyl-20-oxa-3,4,10,11,23-pentaazapentacyclo[19.3.1.0^2,^6.0^8,^12.0^13,^18]pentacosa-1(24),2(6),4,8,11,13,15,17,21(25),22-decaen-22-amine]: the TPM3-NTRK1-wt/CD74-ROS1-G2032R entry is given as “A (bin A for very high selectivity, ratio>30-fold)”; the TPM3-NTRK1-wt/CD74-ROS1-wt result is reported as “A (bin A for very high selectivity, ratio>30-fold)”; the TPM3-NTRK1-wt/EML4-ALK-L1196M-G1202R entry is reported as “B (bin B for high selectivity, ratio>10-fold)”; the TPM3-NTRK1-wt/EML4-ALK-wt entry is “A (bin A for very high selectivity, ratio>30-fold)”.
